From patent US20140024839A1, “FULLERENE DERIVATIVE, AND METHOD OF PREPARING THE SAME” (RICOH COMPANY, LTD., priority 2012, published 2014)

Assay: Solubility in o-dichlorobenzene (saturated solution, HPLC with standard curves)
Type: physicochemical
Conditions: saturated o-dichlorobenzene solution at 25° C., filtered 0.45 μm, HPLC 254 nm
Protocol: Solubilities of the fullerene derivatives having the formulae (1a) to (5a) of the present invention in Examples 1 to 5 and the fullero pyrrolidine in Application Examples 1 to 5 in o-dichlorobenzene were evaluated by the following method. A 0.1 mM o-dichlorobenzene solution and a 1.0 mM o-dichlorobenzene solution of each of the fullerene derivatives and the fullero pyrrolidine were prepared, and diluted fivefold with THF for HPLC. Ten (10) μL of the diluted solution was analyzed by a high-speed liquid chromatograph (LC-2010HT from Shimadzu Corp.; developing solvent: THF/ion-exchanged water=60/40; analysis time: 60 min; and detection wavelength: 254 nm) to prepare a chromatogram. Standard curves of the known concentrations (0.1 mM and 1.0 mM) were obtained therefrom. Next, a saturated o-dichlorobenzene solution of each of the fullerene derivatives and the fullero pyrrolidine were prepared at 25° C. After the saturated solution was filtered with a 0.45 μm filter, it was diluted hundredfold with THF for HPLC. Ten (10) μL of the diluted solution was analyzed by the same method mentioned above to prepare a chromatogram. A weight of the fullerene derivative dissolved in 1 mL of o-dichlorobenzene was determined as solubility using a peak area value of the chromatogram from the saturated solution and the standard curves.
With `CCCCCCCCCC1N(c2ccc(OC(=O)OC(C)(C)C)cc2)CC23C4=c5c6c7c8c9c%10c%11c%12c%13c%14c%15c%16c(c5c(c%15%12)c%106)C12C1C%162CC15c1c6c%10c%12c%15c%16c%17c%18c%19c%20c%21c%22c%23c%24c(c1c%12c(c%21%24)c%19%15)C5C3C%23C4C7C%22C8C%20C%18C9C%11C%17C%13C%16C%10C%14C62` (stereo not drawn) [formula (4a)] the “Weight of the fullerene derivative dissolved in 1 mL of o-dichlorobenzene” value (from here on “Weight”) was 159 mg.
In the case of `CC(C)(C)OC(=O)Oc1ccc(N2CC34C5=c6c7c8c9c%10c%11c%12c%13c%14c%15c%16c%17c(c6c(c%16%13)c%117)C3(C2C(C)(C)C)C2C%173CC26c2c7c%11c%13c%16c2c2c%17c%18c%19c%20c%21c%22c%23c(c-%13c%21c%18%16)C(C%14C%23C%12C%10C%22C%20C9C9C8C5C(C%17C%199)C4C26)C%11C%15C73)cc1` (stereo not drawn) [formula (3a)], the “Weight” value is reported as 107 mg.
For `CCCCCCCCCCCCC1N(c2ccc(OC(=O)OC(C)(C)C)cc2)CC23C4=c5c6c7c8c9c%10c%11c%12c%13c%14c%15c%16c(c5c(c%15%12)c%106)C12C1C%162CC15c1c6c%10c%12c%15c%16c%17c%18c%19c%20c%21c%22c%23c%24c(c1c%12c(c%21%24)c%19%15)C5C3C%23C4C7C%22C8C%20C%18C9C%11C%17C%13C%16C%10C%14C62` (stereo not drawn) [formula (5a)], the “Weight” value was 280 mg.
